Patent publication US11161888B2, “Method for regulating targeting of Cyclin Y (CCNY) protein to synapses” (KOREA INSTITUTE OF SCIENCE AND TECHNOLOGY, priority 2018, dated 2021)
Entries after “also recorded” stand apart in the source; their conditions may differ.

How the values were obtained:
[1] = test system: CCNY; assay: Acyl-biotinyl exchange (ABE) assay of CCNY palmitoylation in HEK293T cells; type: cell-based; conditions: 4 hours prior to ABE assay, HEK293T cells (FIG. 3B)
Method: (§1) All images are single-plane images. […] The scale bars are 5 (B and C) show the results of an acyl-biotinyl exchange (ABE) assay. CCNY-WT-EGFP or CCNY-Mut(C7, 8S)-EGFP were overexpressed in HEK293T cells, and the cells were subsequently treated with a palmitoylation blocker, 2-bromopalmitate (2-BP, 30 μM or 100 μM), for 4 hours prior to the ABE assay.
(§2) The ABE assay was performed as previously described (Wan et al., 2007) with minor modifications. Briefly, HEK293T cells were transfected with CCNY-WT-EGFP, CCNY-Mut(C7,8S)-EGFP, or PSD-95-WT-EGFP. PSD-95-WT-EGFP was transfected with or without DHHC2-HA. Twenty four hours after transfection, the cells were lysed in lysis buffer (150 mM NaCl, 50 mM Tris, 5 mM EDTA, protease inhibitor cocktail, 1 mM PMSF, pH 7.4) with 1.7% Triton X-100 and 10 mM N-ethylmaleimide (NEM) for 1 hour at 4° C. The cell lysates were centrifuged at 250 g for 5 minutes at 4° C., and the resultant supernatants were applied to the chloroform-methanol (CM) precipitation methodology. […] The eluted samples in loading buffer (50 mM Tris-HCl, pH 6.8, 5% β-mercaptoethanol, 2% SDS, 0.01% bromophenol blue) were then boiled for 10 minutes at 95° C., applied to SDS-PAGE, and analyzed by immunoreactions with anti-CCNY (Proteintech Group), anti-PSD-95 (Thermo Scientific) and anti-GFP (Roche). […]

[2] = test system: PSD-95; assay: Acyl-biotinyl exchange (ABE) assay of PSD-95 palmitoylation (positive control) in HEK293T cells; type: cell-based; conditions: in the presence of 2-bromopalmitate, HEK293T cells (FIG. 3C)
Method: as §1, §2

[3] = test system: hippocampal neurons overexpressing CCNY-WT-EGFP; assay: Confocal imaging of CCNY-WT-EGFP membrane association in neurons treated with palmitoylation blocker; type: cell-based, rat; conditions: 2-bromopalmitate 100 μM, 4 hours, hippocampal neurons (FIG. 1D)
Method: Specifically, (A) is a confocal single-plane image of hippocampal neurons overexpressing EGFP-tagged CCNY-WT. […] The scale bars are 20 μm (top) and 5 μm (bottom). […] The scale bar is 20 μm.
HEK 293T cells were grown in DMEM (Gibco) supplemented with 10% fetal bovine serum. Hippocampal neuronal cultures were prepared from E18 Sprague-Dawley (SD) rat embryos. The hippocampal neurons were grown on poly-D-lysine ([…]; Sigma)-coated 18 mm glass coverslips and maintained for 10 to 21 days in vitro (DIV) in 12-well plates containing B27 and Glutamax-supplemented Neurobasal medium (Gibco) at 37° C. in an incubator equilibrated with 5% CO2 (Cho et al., 2015). The culture contains glial cells that were grown up to 70% to 80% confluency, where further growth was inhibited by treatment of 5-fluoro-2′-deoxyuridine (FUdR) ([…]; Sigma).
Neurons were transfected at 10 to 15 DIV using Lipofectamine 2000 (Invitrogen) for 1 to 6 days, and then experiments were performed at 14 to 17 DIV. All experiments handling animals and their embryos were performed in accordance with the guidelines and regulations of the Korea Institute of Science and Technology (KIST). All experimental protocols were approved by the KIST Institutional Animal Care and Use Committee (IACUC; approval number 2018-048). […]

CCCCCCCCCCCCCCC(Br)C(=O)O (stereo not shown) [2-bromopalmitate]
palmitoylation of CCNY-WT-EGFP (ABE assay) ([1]; 2-bromopalmitate 30 μM): no palmitoylation was detected; also recorded: blocked
palmitoylation of CCNY-WT-EGFP (ABE assay) ([1]; 2-bromopalmitate 100 μM): no palmitoylation was detected; also recorded: blocked
palmitoylation of PSD-95 (ABE assay) [2]: inhibited
membrane-associated localization of CCNY-WT-EGFP on the neuronal cell surface [3]: altered
